# According to ChEMBL document CHEMBL1201862, “PubChem BioAssay data set” (2004):
# Active and inactive are the calls of the source.
# Columns and labels:
# Protein RecA = biological target: T1, Protein RecA (Mycobacterium tuberculosis, UniProt P9WHJ3); experiment: Fluorescence Cell-Free Homogeneous Dose Retest to Identify Inhibitors of RecA-Intein Splicing Activity. [Related pubchem assays (depositor defined):AID2097, AID2223, AID489010, AID492950]; format: functional
# T1 sequence (P9WHJ3 whole entry): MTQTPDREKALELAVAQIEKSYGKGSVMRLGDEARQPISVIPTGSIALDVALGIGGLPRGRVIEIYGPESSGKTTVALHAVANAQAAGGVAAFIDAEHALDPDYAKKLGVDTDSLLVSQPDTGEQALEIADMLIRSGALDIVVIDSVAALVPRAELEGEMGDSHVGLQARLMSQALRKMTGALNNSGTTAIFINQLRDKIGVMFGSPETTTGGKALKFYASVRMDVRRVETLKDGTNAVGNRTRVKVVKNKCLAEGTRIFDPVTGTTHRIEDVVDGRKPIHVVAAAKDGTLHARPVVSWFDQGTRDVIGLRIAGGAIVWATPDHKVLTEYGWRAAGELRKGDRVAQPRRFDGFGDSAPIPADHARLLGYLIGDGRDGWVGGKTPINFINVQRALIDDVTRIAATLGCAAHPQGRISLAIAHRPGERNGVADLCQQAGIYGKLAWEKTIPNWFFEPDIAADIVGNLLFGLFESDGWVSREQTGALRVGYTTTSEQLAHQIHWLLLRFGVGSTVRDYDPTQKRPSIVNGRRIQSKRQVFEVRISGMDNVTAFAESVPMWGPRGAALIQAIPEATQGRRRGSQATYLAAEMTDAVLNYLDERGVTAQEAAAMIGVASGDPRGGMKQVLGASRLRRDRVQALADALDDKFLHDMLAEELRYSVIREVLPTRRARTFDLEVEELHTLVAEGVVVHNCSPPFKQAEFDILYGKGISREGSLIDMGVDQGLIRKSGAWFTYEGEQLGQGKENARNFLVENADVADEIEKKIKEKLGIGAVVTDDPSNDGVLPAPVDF
# [1] = biological target: T2, Replicative DNA helicase DnaB (Mycobacterium tuberculosis, UniProt P9WMR3); experiment: DnaB intein splicing inhibitors, dose response, biochemical, cell-free fluorescence (AID 449749); format: functional
# T2 sequence (P9WMR3 whole entry): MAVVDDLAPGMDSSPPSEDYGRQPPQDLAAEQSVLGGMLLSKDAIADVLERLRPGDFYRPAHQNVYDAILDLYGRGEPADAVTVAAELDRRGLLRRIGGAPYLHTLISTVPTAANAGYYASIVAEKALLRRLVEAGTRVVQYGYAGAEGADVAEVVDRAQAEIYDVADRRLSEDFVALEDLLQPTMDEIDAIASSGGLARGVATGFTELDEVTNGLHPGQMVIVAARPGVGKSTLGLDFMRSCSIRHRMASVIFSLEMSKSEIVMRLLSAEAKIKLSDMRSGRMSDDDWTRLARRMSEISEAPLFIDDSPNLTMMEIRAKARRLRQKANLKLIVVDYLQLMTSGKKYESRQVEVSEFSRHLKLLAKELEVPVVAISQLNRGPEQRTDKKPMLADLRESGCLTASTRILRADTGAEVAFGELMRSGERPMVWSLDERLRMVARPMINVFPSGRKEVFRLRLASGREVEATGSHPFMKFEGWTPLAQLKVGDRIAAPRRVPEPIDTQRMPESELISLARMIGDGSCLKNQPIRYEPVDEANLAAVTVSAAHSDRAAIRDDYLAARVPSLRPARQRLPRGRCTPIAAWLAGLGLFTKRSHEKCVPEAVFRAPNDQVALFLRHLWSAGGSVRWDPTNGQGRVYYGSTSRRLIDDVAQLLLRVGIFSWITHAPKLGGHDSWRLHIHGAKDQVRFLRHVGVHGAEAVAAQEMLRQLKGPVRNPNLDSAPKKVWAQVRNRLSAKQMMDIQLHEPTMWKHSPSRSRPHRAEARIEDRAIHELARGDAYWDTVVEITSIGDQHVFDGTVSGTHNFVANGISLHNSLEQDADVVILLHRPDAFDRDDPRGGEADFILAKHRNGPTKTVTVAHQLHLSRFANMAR
# [2] = biological target: T3, Heat shock factor protein 1 (Mus musculus, UniProt P38532); experiment: HSF1 potentiators in luciferase reporter cells, confirmation, cell-based, NIH3T3, luminescence, dose retest (AID 435004); format: functional;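 further: stress induced by proteasome inhibitor MG132 added 30 min after compound; luciferase reporter driven by HSF1 response element in NIH3T3 cells; actives raise luminescence as potentiators of the MG132 stress response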
# T3 sequence (P38532 whole entry): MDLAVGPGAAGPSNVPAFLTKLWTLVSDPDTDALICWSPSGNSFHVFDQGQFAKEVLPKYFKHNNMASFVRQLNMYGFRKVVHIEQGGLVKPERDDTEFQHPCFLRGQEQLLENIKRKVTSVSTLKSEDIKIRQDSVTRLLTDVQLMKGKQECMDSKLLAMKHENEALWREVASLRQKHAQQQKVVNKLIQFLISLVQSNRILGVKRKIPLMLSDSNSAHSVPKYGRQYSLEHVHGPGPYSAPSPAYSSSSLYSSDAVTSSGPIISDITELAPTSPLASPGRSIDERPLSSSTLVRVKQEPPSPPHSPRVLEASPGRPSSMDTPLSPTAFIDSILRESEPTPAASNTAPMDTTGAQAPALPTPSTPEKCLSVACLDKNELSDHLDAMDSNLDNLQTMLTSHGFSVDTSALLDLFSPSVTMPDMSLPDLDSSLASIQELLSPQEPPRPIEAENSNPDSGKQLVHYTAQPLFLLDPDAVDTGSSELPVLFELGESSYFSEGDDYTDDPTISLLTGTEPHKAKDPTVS
# Cytochrome P450 2C9 = Cytochrome P450 2C9 (Homo sapiens, UniProt P11712)
# Streptococcus = experiment: Group A Streptococcus viability loss, dose response, counter-screen for streptokinase expression inhibitor project, luminescence, BacTiterGlo (AID 1915); format: functional, organism-based;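 further: potency for reduction of bacterial viability or growth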
# [3] = system: Streptococcus sp. 'group A'; experiment: growth inhibition of control SK(-) GAS strain, dose response, counter-screen for streptokinase expression inhibitor project, luminescence, kanamycin, BacTiterGlo, confirmation (AID 1900); format: functional, organism-based
# Cytochrome P450 2C19 = Cytochrome P450 2C19 (Homo sapiens, UniProt P33261); experiment: Cytochrome panel assay with activity outcomes. Panel member name: p450-cyp2c19 Compounds with AC50 equal or less than 10 uM are considered active; format: functional; details: read-out: AC50
# Cytochrome P450 3A4 = Cytochrome P450 3A4 (Homo sapiens, UniProt P08684);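 further: CYP3A4 tested as one member of a cytochrome P450 panel screen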
# [4] = inhibitors of intracellular T. cruzi replication, confirmation, NIH3T3 host cells, beta-gal luminescence (AID 2044); format: functional, cell-based;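 further: intracellular parasites grown in NIH/3T3 mouse fibroblasts as host cells; luminescent beta-galactosidase reporter signal from transgenic T. cruzi replicating inside host cells; inhibitors lower the luminescence signal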
# [5] = cytotoxicity toward NIH3T3 fibroblasts, dose response, counter-screen, cell-based, ATP luminescence, mouse fibroblasts (AID 2010); format: functional;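 further: cells exposed to compound for about 90 hours before reading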
# [6] = inhibitors of firefly luciferase expression or activity, dose response, H4 neuroglioma cells, luminescence (AID 1990); format: functional, cell-based
# [7] = Luminescence Cell-Based Dose Response HTS to Identify Inhibitors of 5'UTR Stem-Loop Driven Prion Protein mRNA Translation in H4 Neuroglioblastoma Cells. [Related pubchem assays: 1827 (Project Summary), 1813 (Primary HTS)]; format: functional
# [8] = inhibitors of SNCA 5'UTR-driven reporter translation, confirmation, H4 neuroglioma cells, luminescence (AID 1988); format: functional, cell-based
# Sequence of Cytochrome P450 2C19 (P33261 whole entry): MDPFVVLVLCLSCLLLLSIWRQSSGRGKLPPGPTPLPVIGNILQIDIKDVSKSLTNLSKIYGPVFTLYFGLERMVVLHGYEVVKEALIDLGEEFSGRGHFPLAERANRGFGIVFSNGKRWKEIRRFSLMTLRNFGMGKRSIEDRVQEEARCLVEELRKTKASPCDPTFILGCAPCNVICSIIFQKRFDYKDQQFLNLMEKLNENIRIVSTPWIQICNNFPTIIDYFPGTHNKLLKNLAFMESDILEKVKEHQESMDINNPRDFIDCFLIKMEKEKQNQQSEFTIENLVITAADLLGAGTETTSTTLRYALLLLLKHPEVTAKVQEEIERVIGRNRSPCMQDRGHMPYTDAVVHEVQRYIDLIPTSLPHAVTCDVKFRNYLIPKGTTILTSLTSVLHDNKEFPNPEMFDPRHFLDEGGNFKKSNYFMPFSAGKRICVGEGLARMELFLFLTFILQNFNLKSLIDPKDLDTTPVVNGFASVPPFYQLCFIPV
# Sequence of Cytochrome P450 2C9 (P11712 whole entry): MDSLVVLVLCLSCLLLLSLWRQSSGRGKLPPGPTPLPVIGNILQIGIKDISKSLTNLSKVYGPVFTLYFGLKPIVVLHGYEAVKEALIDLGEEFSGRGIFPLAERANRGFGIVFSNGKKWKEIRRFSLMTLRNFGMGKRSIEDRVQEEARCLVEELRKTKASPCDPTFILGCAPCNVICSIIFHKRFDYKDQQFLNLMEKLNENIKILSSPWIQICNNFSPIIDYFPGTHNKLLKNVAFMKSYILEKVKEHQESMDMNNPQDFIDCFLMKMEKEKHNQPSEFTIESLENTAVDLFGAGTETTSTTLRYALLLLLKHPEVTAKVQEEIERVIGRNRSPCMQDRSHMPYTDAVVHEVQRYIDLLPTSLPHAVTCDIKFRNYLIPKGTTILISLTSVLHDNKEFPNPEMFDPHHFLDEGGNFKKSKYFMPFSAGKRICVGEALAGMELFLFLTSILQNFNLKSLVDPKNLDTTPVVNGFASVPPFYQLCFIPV
# Sequence of Cytochrome P450 3A4 (P08684 whole entry): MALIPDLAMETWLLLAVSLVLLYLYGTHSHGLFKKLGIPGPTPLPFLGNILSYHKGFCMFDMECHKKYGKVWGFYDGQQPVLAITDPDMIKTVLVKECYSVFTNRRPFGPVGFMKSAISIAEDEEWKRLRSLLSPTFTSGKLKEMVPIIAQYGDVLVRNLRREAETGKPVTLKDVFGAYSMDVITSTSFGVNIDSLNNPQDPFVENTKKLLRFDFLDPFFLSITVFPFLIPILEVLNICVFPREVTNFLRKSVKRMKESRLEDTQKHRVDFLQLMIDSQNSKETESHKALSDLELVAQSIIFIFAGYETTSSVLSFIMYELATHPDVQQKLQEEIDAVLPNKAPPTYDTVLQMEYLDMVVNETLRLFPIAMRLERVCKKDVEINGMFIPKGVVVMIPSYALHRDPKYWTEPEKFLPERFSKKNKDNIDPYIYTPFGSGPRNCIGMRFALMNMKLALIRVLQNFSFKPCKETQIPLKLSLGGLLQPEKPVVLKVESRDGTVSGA
smiles,measurement,setting,value
O=C(CCCN1C(=O)/C(=C\c2ccccc2)SC1=S)Nc1ccc(O)cc1C(=O)O,EC50,Protein RecA,15.1 µM (active)
same,AC50,[1],15.4 µM (active)
Cc1ccc2[nH]c(SCC(=O)Nc3cccc(S(=O)(=O)NC4=NCCCCC4)c3)nc2c1,EC50,[2],> 260 µM (inactive)
N#CCCn1c(=O)c(-c2cccs2)nc2cnc(OCc3ccccc3)nc21,AC50,Cytochrome P450 2C9,1.58 µM (inconclusive)
CCC(=O)N1CCN(c2ccc(NC(=O)COc3ccc(C)cc3C)cc2)CC1,EC50,[2],> 260 µM (inactive)
Clc1ccc(CCNc2nc3ccccc3s2)cc1,AC50,Cytochrome P450 2C9,12.6 µM (inconclusive)
Cc1cc(-c2c(C)[nH]n(-c3ccc(Cl)cc3)c2=O)[nH]n1,EC50,Streptococcus,> 150 µM (not active)
same,EC50,[3],2.51 µM (active)
Nc1nc(S)nc2c1C1(CCCC1)Cc1ccccc1-2,AC50,Cytochrome P450 2C9,0.355 µM (inconclusive)
same,AC50,Cytochrome P450 2C19,11.2 µM (inconclusive)
Cc1oc(C(C)(C)C)cc1C(=O)Nc1cccc(/C=C/C(=O)O)c1,AC50,Cytochrome P450 2C9,4.47 µM (inconclusive)
CC(C)NC(=O)N1CC[C@@]2(CCCN(S(C)(=O)=O)C2)C1,AC50,Cytochrome P450 2C9,25.1 µM (inconclusive)
same,AC50,Cytochrome P450 2C19,39.8 µM (inconclusive)
N#C/C(C(=O)NCc1ccccc1)=C1/N=C(NC(=O)c2ccco2)c2ccccc21,EC50,[2],> 260 µM (inactive)
CCNc1ncc2nc(-c3ccccc3)c(=O)n(CCOC)c2n1,AC50,Cytochrome P450 2C9,20 µM (inconclusive)
same,AC50,Cytochrome P450 3A4,31.6 µM (inconclusive)
same,AC50,Cytochrome P450 2C19,31.6 µM (inconclusive)
CCC(C)n1c(SCC(=O)NC(=O)Nc2ccc3c(c2)OCCO3)nc2ccccc2c1=O (stereo unspecified),EC50,[4],2.2 µM (active)
same,EC50,[2],> 260 µM (inactive)
same,EC50,[5],> 60 µM (not active)
N=C(N)NS(=O)(=O)c1ccc(NC(=S)NC(=O)c2ccc(Br)cc2)cc1,EC50,[2],> 260 µM (inactive)
CCN(C(=O)c1cccc(S(=O)(=O)N2CCCCC2)c1)C1CCS(=O)(=O)C1 (stereo unspecified),EC50,[2],> 260 µM (inactive)
COCCCNC(=O)c1c(NC(=O)c2cccs2)sc2c1CCCC2,AC50,Cytochrome P450 2C9,0.562 µM (inconclusive)
same,AC50,Cytochrome P450 2C19,4.47 µM (inconclusive)
CCc1cc2c(=O)c(-c3nc4ccccc4[nH]3)coc2cc1OC(=O)N1CCOCC1,AC50,Cytochrome P450 2C9,8.91 µM (inconclusive)
same,AC50,Cytochrome P450 3A4,5.01 µM (inconclusive)
N=c1sccn1CC(=O)Nc1cc(Cl)ccc1Oc1ccccc1,EC50,[2],> 260 µM (inactive)
COCCNC(=O)c1cccc(OC2CCN(Cc3ccc(Cl)c(F)c3)CC2)c1,EC50,[2],> 260 µM (inactive)
COc1cc(C(=O)OCC(=O)Nc2cc(C)on2)cc(OC)c1OC,AC50,Cytochrome P450 2C9,0.0447 µM (inconclusive)
same,AC50,Cytochrome P450 3A4,15.8 µM (inconclusive)
O=C(NCCN1Cc2ccccc2C1=O)c1cccs1,EC50,[2],> 260 µM (inactive)
COC(=O)CN1C(=O)S/C(=C/c2ccc(N3CCCCC3)o2)C1=O,AC50,Cytochrome P450 2C9,5.62 µM (inconclusive)
same,AC50,Cytochrome P450 3A4,15.8 µM (inconclusive)
same,AC50,Cytochrome P450 2C19,5.62 µM (inconclusive)
COc1ccc2[nH]cc(CCNc3ccnc(-c4ccccc4Cl)n3)c2c1,AC50,Cytochrome P450 2C9,1 µM (inconclusive)
Cc1cc(C)n(Cc2ccc(Cl)cc2Cl)c(=O)c1S(=O)(=O)c1ccccc1,EC50,[2],> 260 µM (inactive)
COc1ccc(CN2CC(=O)N(c3ccc(C)c(C)c3)C2=S)cc1OC,EC50,[6],21.3 µM (active)
same,EC50,[7],> 120 µM (not active)
same,EC50,[8],20.4 µM (active)
COc1ccc(OC)c(C2CC(=O)Nc3[nH]nc(-c4ccccc4)c32)c1 (stereo unspecified),EC50,[6],> 120 µM (not active)
same,EC50,[7],> 120 µM (not active)
same,EC50,[8],> 120 µM (not active)
Clc1ccccc1-c1nc(NCc2cccs2)c2ccccc2n1,AC50,Cytochrome P450 2C9,0.794 µM (inconclusive)
O=C1CCN(Cc2ccccc2)N1,EC50,[2],> 260 µM (inactive)
CCOC(=O)c1ccc(-c2c(-c3cc(OC)c(OC)c(OC)c3)noc2C)cc1F,EC50,[6],9.94 µM (inconclusive)
same,EC50,[7],11.4 µM (active)
same,EC50,[8],1.43 µM (active)
COC(=O)c1ccc(COc2cccc3c2CCN(Cc2cccc(C)c2)C3=O)o1,EC50,[6],> 120 µM (not active)
same,EC50,[7],> 120 µM (not active)
same,EC50,[8],107 µM (active)
Cc1cc(C)c(S(=O)(=O)N2CCN(c3ccc([N+](=O)[O-])c(NCc4ccco4)c3)CC2)c(C)c1,AC50,Cytochrome P450 2C9,0.562 µM (inconclusive)
same,AC50,Cytochrome P450 2C19,0.708 µM (inconclusive)
COC(=O)C1=CN(Cc2ccc(OC)c(OC)c2)C=C(C(=O)OC)C1c1cccc(F)c1,EC50,[6],15.1 µM (active)
same,EC50,[4],0.156 µM (active)
same,EC50,[7],> 120 µM (not active)
same,EC50,[5],> 60 µM (not active)
same,EC50,[8],65.7 µM (active)
CCOC(=O)c1c(-c2ccc(C)cc2)cn2ccccc12,EC50,[2],> 260 µM (inactive)
Cc1cc(-c2ccc(C(C)C)c(S(=O)(=O)NCCN3CCC(C)CC3)c2)on1,EC50,[2],> 260 µM (inactive)
CCOCCCn1cnc2c3ccc(OC)cc3nc-2c1O,AC50,Cytochrome P450 2C9,39.8 µM (inconclusive)
CCOc1ccccc1CN1CCN(Cc2cn(C)nc2-c2ccccc2)CC1CCO (stereo unspecified),EC50,[2],> 260 µM (inactive)
